Measurements from patent US4619943A, “Neolignans of Saururus cernuus L and analogues thereof” (priority 1984, dated 1986).
≈ marks a conversion by molar mass, not a printed value. Where “and” joins values, the source holds several entries; their conditions need not be identical. Equal values may be shown once. Entries after “also recorded” stand apart in the source; their conditions may differ.

How the values were obtained:
[1] = system: Pimephales promelas; assay: Acute toxicity to fish; assay type: in vivo; conditions: for % Mortality, Avg / % Mortality, single replicates (1 to 6): 2 hours; for % Mortality, single replicates (1 to 6): 120 min
Procedure: Many compounds having insecticidal activity also show toxicity to fish. For example, rotenoids, pyrethrins, and DDT have significant toxicity to fish. For this reason, fish have been used frequently to indicate potential insecticidal activity. The present compounds were tested for acute toxicity to fish by the method described in "Methods For Acute Toxicity Tests With Fish, Macro-Invertebrates and Amphibians", EPA 660/3-75-009, Committee on Methods for Toxicity Tests With Aquatic Organisms, Environmental Protection Agency, Corvallis, OR, 1975.
The fish, commonly known as Missouri minnows or fat heads (Pimephales promelas, family, cyprinidae) were purchased from a local hatchery and equilibrated to the new surroundings for 24 hours. They were kept in deionized water, previously adjusted to pH 6.5 with phosphate buffer at 23° C. Sufficient oxygen was provided, and the fish were deprived of food during the test period.
Groups of six fish were placed in containers with different concentrations of the test compound. The percent mortality was recorded every 30 minutes. The LC 50 values (mg/L) and 95% confidence limits were determined from the percent mortality data after 2 hours of exposure from 6 separate replicates using the method of Lichfield and Wiloxon [(J. Pharmacology and Exp. Therepeutics, 96, 99-113 (1949))].

[2] = Potentiation of pentobarbital sleeping time; assay type: in vivo, mice; parameters: Sleeping Time, Treated: unit not given here
Procedure: SC-8 has the ability to potentiate the sedative activity of pentobarbital. The procedure employed is that of Turner (R. A. Turner, Screening Methods in Pharmacology, Academic Press, New York, p. 302 (1965)), in which three groups of mice were injected ip with the drug at three levels and a control group with saline. […] The sleeping time of each was measured as the interval between the loss and recovery of the righting reflex, and activity is defined as at least a 200% prolongation of sleeping time.

[3] = system: mice; assay: Acute toxicity (LD50) in mice, procedure of Turner; assay type: in vivo, male Swiss mice
[4] = Acute toxicity (LD50) in mice, procedure of Turner; assay type: in vivo, male Swiss mice; conditions: mouse, in vivo, ip; mice, intraperitoneal, 24 hours
[5] = system: cabbage looper (Trichoplusia ni [Hubner]); assay: Insecticidal activity against cabbage looper; assay type: in vivo; conditions: Trichoplusia ni, 336 h, second instar larvae, 14 days
Procedure: (§1) The present compounds were tested for insecticidal activity against cabbage looper (Trichoplusia ni [Hubner]), and southern armyworm (Spodoptera eridania) at application rates of 1000 and 500 ppm. The tests were conducted in petri dishes containing a solid food source in which the test compounds had been incorporated. The petri dishes containing the treated food source were infested with second instar larvae of southern armyworms or cabbage loopers. Ten larvae per replicate and two replicates per test rate were used. Mortality data were taken 14 days after infestation.

[6] = Morphine antagonism (Straub tail phenomenon); conditions: SC-8 1.5 mg/Kg, morphine sulfate 20 mg/Kg ip
[7] = system: mice; assay: Behavioral assay in mice (Campbell and Richter), sixteen behavioral signs; assay type: in vivo; conditions: injected, after 30 minutes
Procedure: The behavioral assay in mice was carried out using the procedures of Campbell and Richter (D. E. S. Campbell and W. Richter, Acta Pharmacol. et Toxicol. 25, 345 (1967)). The method involved injection of five mice with the drug and obseving for sixteen behavioral signs after 30 minutes. A recognizable pattern will be apparent, characteristic of various CNS-activities: sympathomimetic, tranquilizer, etc.
Ten male Swiss mice (20-25 g) were divided into groups. One group was injected with physiological saline to serve as control. The other group was injected with 15 mg/Kg of benzene-partition sample (prepared as in Example 2) in suspension form (0.6 mg/ml) in physiological saline solution containing 0.5% carboxymethylcellulose. […] These are all considered as indicators of neuroleptic activity.

[8] = system: Meloidogyne incognita; assay: Nematicidal test: galls on tomato root system; assay type: in vivo; conditions: 10 days
Procedure: Juveniles of the nematode Meloidogyne incognita were placed in 10 ml vials containing 5 ml of sand each and were soaked with 3 ml of solutions of the test compound at different concentrations in 1% ethanol in water for 24 hours. Tomato seedlings (4-6" high, with roots partly trimmed) were placed in the vials which were then placed in a growth chamber at 28° for 10 days. The tests were watered as needed to keep the sand moist. After 10 days, the plants were removed, and the galls counted on each root system. Each sample was tested in replicates of 10, and the results were analyzed according to Duncan's multiple range test ([…]). The results for SC-8 are shown in Tables 3 and 4 which represent two different experiments spaced approximately two months apart. In the later test (Table 4), the amount of ethanol in the test solutions was varied.

[9] = system: southern armyworm (Spodoptera eridania); assay: Insecticidal activity against southern armyworm; assay type: in vivo; conditions: both application rates, 1000 and 500 ppm, 14 days
Procedure: as §1

With `COc1ccc(C(O)C(C)Oc2ccc([C@@H]3O[C@@H](c4ccc(OC(C)C(O)c5ccc(OC)c(OC)c5)c(OC)c4)[C@@H](C)[C@@H]3C)cc2OC)cc1OC` (stereo partly drawn) [SC-8, 2α,5β-bis[3-methoxy-4-{threo-3-hydroxy-3-(3,4-dimethoxyphenyl)}isopropoxyphenyl]-3α,4β-dimethyltetrahydrofuran] the “% Mortality, Avg” value ([1]; 0.13 mg/L) was 9%, the “% Mortality, single replicates (1 to 6)” value ([1]; 0.13 mg/L) was 0% (3×) and 17% (3×) and the “% Mortality, Avg” value ([1]; 0.25 mg/L) was 28%. The “% Mortality, single replicates (1 to 6)” value ([1]; 0.25 mg/L) was 33% (4×) and 17% (2×), the “% Mortality, Avg” value ([1]; 0.38 mg/L) was 50% and the “% Mortality, single replicates (1 to 6)” value ([1]; 0.38 mg/L) was 67% and 50% (4×) and 33%. For the same molecule, the “% Mortality, Avg” value ([1]; 0.5 mg/L) was 64%, the “% Mortality, single replicates (1 to 6)” value ([1]; 0.5 mg/L) was 67% (5×) and 50% and the “% Mortality, Avg” value ([1]; 0.75 mg/L) was 75%. For the same molecule, the “% Mortality, single replicates (1 to 6)” value ([1]; 0.75 mg/L) was 83% (3×) and 67% (3×), the “% Mortality, Avg” value ([1]; 1.0 mg/L) was 97% and the “% Mortality, single replicates (1 to 6)” value ([1]; 1.0 mg/L) was 100% (5×) and 83%. For the same molecule, the LC50 ([1]; 2 hours of exposure, pH 6.5, 23° C) was 0.48 µg/mL (≈ 0.655 µM), the “% Increase of Sleeping Time” value ([2]; SC-8 0.01 mg/Kg ip, pentobarbital 40 mg/Kg) was 175% and the “Sleeping Time, Treated” value ([2]; SC-8 0.01 mg/Kg ip, pentobarbital 40 mg/Kg, control 12.0) was 21.0. The “% Increase of Sleeping Time” value ([2]; SC-8 0.06 mg/Kg ip, pentobarbital 40 mg/Kg) was 217%, the “Sleeping Time, Treated” value ([2]; SC-8 0.06 mg/Kg ip, pentobarbital 40 mg/Kg, control 12.0) was 26.0 and the “% Increase of Sleeping Time” value ([2]; SC-8 0.125 mg/Kg ip, pentobarbital 40 mg/Kg) was 158%. The “Sleeping Time, Treated” value ([2]; SC-8 0.125 mg/Kg ip, pentobarbital 40 mg/Kg, control 12.0) was 19.0, the “% Increase of Sleeping Time” value ([2]; SC-8 0.25 mg/Kg ip, pentobarbital 40 mg/Kg) was 304% and the “Sleeping Time, Treated” value ([2]; SC-8 0.25 mg/Kg ip, pentobarbital 40 mg/Kg, control 10.8) was 32.8. The “% Increase of Sleeping Time” value ([2]; SC-8 0.4 mg/Kg ip, pentobarbital 42 mg/Kg) was 280%, the “Sleeping Time, Treated” value ([2]; SC-8 0.4 mg/Kg ip, pentobarbital 42 mg/Kg, control 16) was 44.8 and the “% Increase of Sleeping Time” value ([2]; SC-8 0.5 mg/Kg ip, pentobarbital 40 mg/Kg) was 357%. The “Sleeping Time, Treated” value ([2]; SC-8 0.5 mg/Kg ip, pentobarbital 40 mg/Kg, control 10.8) was 36.6, the “% Increase of Sleeping Time” value ([2]; SC-8 1.0 mg/Kg ip, pentobarbital 40 mg/Kg) was 300% and the “Sleeping Time, Treated” value ([2]; SC-8 1.0 mg/Kg ip, pentobarbital 40 mg/Kg, control 10.8) was 32.4. For the same molecule, the “% Increase of Sleeping Time” value ([2]; SC-8 4.0 mg/Kg ip, pentobarbital 42 mg/Kg) was 857%, the “Sleeping Time, Treated” value ([2]; SC-8 4.0 mg/Kg ip, pentobarbital 42 mg/Kg, control 16) was 140 and the “prolongation of pentobarbital-sleeping time (conclusion)” value ([2]; dose range 1.0-0.05 mg/Kg) was “significant prolongation”. For the same molecule, the “potentiating sedatives of the pentobarbital type (summary)” value ([2]; summary statement, no dose) was “significant activity”, the LD10 ([3]; mice) was 4 mg/kg and the “toxicity by the oral route” value ([3]; mice, oral, dose range of 10-20 mg/Kg) was “toxic”. The “absorbability following oral administration” value ([3]; oral, inferred from oral toxicity at 10-20 mg/Kg) was “ready absorbability”, the LD50 at 24 h [4] was 5.2 ± 0.2 mg/kg and the mortality at 500 ppm ([5]; 500 ppm in food) was 90%. The mortality at 1000 ppm ([5]; 1000 ppm in food) was 100%, the “effect on morphine-induced Straub tail” value [6] was “counteracted this effect” and the “Degree of Tail Elevation, After 20 min.” value ([6]; before SC-8 40°) was 10 °. The “Degree of Tail Elevation, After 50 min.” value ([6]; before SC-8 40°) was 10 °, the behavioral signs [7] was “head drop with righting reflex; also recorded: decreased locomotion; also recorded: abduced hindlegs with righting reflex; also recorded: unsteady gait; also recorded: catalepsy” and the “lowering of body temperature from 37° to” value ([7]; from 37°) was 31 °. The “Number of Galls/Root System, single replicates (1 to 10)” value (shortened to “Number of Galls/Root System … (1 to 10)”) ([8]; Table 3, 1 ppm, 1% ethanol) was 17 (2×) and 13 and 20 and 21 and 24 and 3 and 28 and 40 and 16, the “Number of Galls/Root System, Avg.” value ([8]; Table 3, 1 ppm, 1% ethanol, 1% ethanol control 23.7, water 28.8) was 19.8 and the “Number of Galls/Root System … (1 to 10)” value ([8]; Table 3, 5 ppm, 1% ethanol) was 26 and 34 and 3 and 0 (2×) and 19 and 24 and 4 and 14 and 13. The “Number of Galls/Root System, Avg.” value ([8]; Table 3, 5 ppm, 1% ethanol, 1% ethanol control 23.7, water 28.8) was 13.7, the “Number of Galls/Root System … (1 to 10)” value ([8]; Table 3, 10 ppm, 1% ethanol) was 14 (2×) and 17 and 18 and 1 and 2 and 42 and 29 and 3 and 7 and the “Number of Galls/Root System, Avg.” value ([8]; Table 3, 10 ppm, 1% ethanol, 1% ethanol control 23.7, water 28.8) was 14.7. For the same molecule, the “Number of Galls/Root System … (1 to 10)” value ([8]; Table 3, 25 ppm, 1% ethanol) was 3 and 10 and 11 and 18 and 17 (2×) and 26 and 15 and 12 and 24, the “Number of Galls/Root System, Avg.” value ([8]; Table 3, 25 ppm, 1% ethanol, 1% ethanol control 23.7, water 28.8) was 15.3 and the “Number of Galls/Root System … (1 to 10)” value ([8]; Table 3, 50 ppm, 1% ethanol) was 12 (3×) and 15 and 16 (2×) and 20 and 21 and 18 and 7. For the same molecule, the “Number of Galls/Root System, Avg.” value ([8]; Table 3, 50 ppm, 1% ethanol, 1% ethanol control 23.7, water 28.8) was 14.9, the “Number of Galls/Root System … (1 to 10)” value ([8]; Table 4, 1 ppm, 0.01% ethanol) was 7 and 10 and 18 and 14 and 23 and 32 and 1 and 5 and 16 and 9 and the “Number of Galls/Root System, Avg.” value ([8]; Table 4, 1 ppm, 0.01% ethanol, water 25.5) was 13.5. The “Number of Galls/Root System … (1 to 10)” value ([8]; Table 4, 5 ppm, 0.05% ethanol) was 7 and 36 and 17 and 18 and 25 and 6 and 14 and 16 and 11, the “Number of Galls/Root System, Avg.” value ([8]; Table 4, 5 ppm, 0.05% ethanol, water 25.5) was 16.7 and the “Number of Galls/Root System … (1 to 10)” value ([8]; Table 4, 10 ppm, 0.1% ethanol) was 10 and 22 and 34 and 23 and 25 and 26 and 24 and 0. The “Number of Galls/Root System, Avg.” value ([8]; Table 4, 10 ppm, 0.1% ethanol, water 25.5) was 18.4, the “Number of Galls/Root System … (1 to 10)” value ([8]; Table 4, 25 ppm, 0.25% ethanol) was 1 and 8 and 30 and 2 and 28 and 7 and 14 and the “Number of Galls/Root System, Avg.” value ([8]; Table 4, 25 ppm, 0.25% ethanol, water 25.5) was 10.1. The “Number of Galls/Root System … (1 to 10)” value ([8]; Table 4, 50 ppm, 0.5% ethanol) was 12 and 4 and 0 and 22 and 8 and 1 and 5 and 34, the “Number of Galls/Root System, Avg.” value ([8]; Table 4, 50 ppm, 0.5% ethanol, water 25.5) was 8.6 and the “insecticidal activity, southern armyworm” value [9] was “inactive”.
